Reference: ChEMBL document CHEMBL1201862, “PubChem BioAssay data set” (2004)
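Tested at 5 concentrations; 48 h exposure; 96-well plates; endpoints linearly interpolated, else capped at highest concentration. Here, GI50 denotes the concentration required for 50% inhibition of growth.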 Calls of active or inactive are those of the source. Rule as the data show it: active = GI50 up to about 1.1 µM and inactive = higher. Where a SMILES comes first, the peptide text is derived from it. Bridges are numbered along the chain shown (N, C = ends). [ ]: non-standard residue; d: D form. The star is where a group is joined. ξ: configuration not given here. ξNMePhe(4-NMe2) = CNC(Cc1ccc(N(C)C)cc1)C(=O)O; Picolinoyl(3-OH) = O=C(c1ncccc1O)*; ξPip(4-oxo) = O=C1CCNC(C(=O)O)C1; Phg = N[CH](C(=O)O)c1ccccc1; Abu = CC[CH](N)C(=O)O

Key:
Assay in all cases: DTP human tumour cell line panel, 48 h
SNB-78 = tested on: SNB-78
LXFL 529 = tested on: LXFL 529
HOP-18 = tested on: HOP-18
HOP-62 = tested on: HOP-62
SK-MEL-5 = tested on: SK-MEL-5
OVCAR-4 = tested on: OVCAR-4
OVCAR-5 = tested on: OVCAR-5
HOP-92 = tested on: HOP-92
MOLT-4 = tested on: MOLT-4
KM-20L2 = tested on: KM-20L2
UACC-62 = tested on: UACC-62
U-251 = tested on: U-251
HCC 2998 = tested on: HCC 2998
CAKI-1 = tested on: CAKI-1
SW-620 = tested on: SW-620
COLO 205 = tested on: COLO 205
IGROV-1 = tested on: IGROV-1
NCI-H460 = tested on: NCI-H460
SK-MEL-2 = tested on: SK-MEL-2
SNB-19 = tested on: SNB-19
UACC-257 = tested on: UACC-257
786-0 = tested on: 786-0
NCI-H226 = tested on: NCI-H226
ACHN = tested on: ACHN
SK-MEL-28 = tested on: SK-MEL-28
M14 = tested on: M14
HT-29 = tested on: HT-29
Malme-3M = tested on: Malme-3M
UO-31 = tested on: UO-31
SK-OV-3 = tested on: SK-OV-3
RPMI-8226 = tested on: RPMI-8226
DLD-1 = tested on: DLD-1
SNB-75 = tested on: SNB-75
M19-MEL = tested on: M19-MEL
HCT-116 = tested on: HCT-116
A549 = tested on: A549
SN12C = tested on: SN12C
MDA-MB-231 = tested on: MDA-MB-231
NCI-H23 = tested on: NCI-H23
RXF 393 = tested on: RXF 393
MDA-N = tested on: MDA-N
BT-549 = tested on: BT-549
OVCAR-8 = tested on: OVCAR-8
CCRF-CEM = tested on: CCRF-CEM
HL-60 = tested on: HL-60
LOX IMVI = tested on: LOX IMVI
NCI/ADR-RES = tested on: NCI/ADR-RES
MCF7 = tested on: MCF7
T47D = tested on: T47D
K562 = tested on: K562
MDA-MB-435 = tested on: MDA-MB-435
EKVX = tested on: EKVX
OVCAR-3 = tested on: OVCAR-3
KM12 = tested on: KM12
A498 = tested on: A498
SF-268 = tested on: SF-268
HCT-15 = tested on: HCT-15
NCI-H522 = tested on: NCI-H522
Hs-578T = tested on: Hs-578T
SR = tested on: SR
PC-3 = tested on: PC-3
SF-539 = tested on: SF-539
SF-295 = tested on: SF-295
TK-10 = tested on: TK-10
DU-145 = tested on: DU-145

Q: What does the source list for `CC(NC1CCCC[C@H]1O)c1ccccc1` (stereo not given in full)?
A: GI50 (SNB-78): > 100 µM (inactive); GI50 (LXFL 529): > 100 µM (inactive); GI50 (HOP-18): > 100 µM (inactive); GI50 (HOP-62): > 100 µM (inactive); GI50 (SK-MEL-5): > 100 µM (inactive); GI50 (OVCAR-4): > 100 µM (inactive); GI50 (OVCAR-5): > 100 µM (inactive); GI50 (HOP-92): > 100 µM (inactive); GI50 (MOLT-4): > 100 µM (inactive); GI50 (KM-20L2): > 100 µM (inactive); GI50 (UACC-62): > 100 µM (inactive); GI50 (U-251): > 100 µM (inactive); GI50 (HCC 2998): > 100 µM (inactive); GI50 (CAKI-1): > 100 µM (inactive); GI50 (SW-620): > 100 µM (inactive); GI50 (COLO 205): > 100 µM (inactive); GI50 (IGROV-1): > 100 µM (inactive); GI50 (NCI-H460): > 100 µM (inactive); GI50 (SK-MEL-2): > 100 µM (inactive); GI50 (SNB-19): > 100 µM (inactive); GI50 (UACC-257): > 100 µM (inactive); GI50 (786-0): > 100 µM (inactive); GI50 (NCI-H226): > 100 µM (inactive); GI50 (ACHN): > 100 µM (inactive); GI50 (SK-MEL-28): > 100 µM (inactive); GI50 (M14): > 100 µM (inactive); GI50 (HT-29): > 100 µM (inactive); GI50 (Malme-3M): > 100 µM (inactive); GI50 (UO-31): > 100 µM (inactive); GI50 (SK-OV-3): > 100 µM (inactive); GI50 (RPMI-8226): > 100 µM (inactive); GI50 (DLD-1): > 100 µM (inactive); GI50 (SNB-75): > 100 µM (inactive); GI50 (M19-MEL): > 100 µM (inactive); GI50 (HCT-116): > 100 µM (inactive); GI50 (A549): > 100 µM (inactive)

Q: `CC1=C/C(O)CC(=O)Cc2nc(co2)C(=O)N2CCC=C2C(=O)OC(C(C)C)C(C)/C=C/C(=O)NC\C=C\1.CCC1NC(=O)C(NC(=O)c2ncccc2O)C(C)OC(=O)C(c2ccccc2)NC(=O)C2CC(=O)CCN2C(=O)C(Cc2ccc(N(C)C)cc2)N(C)C(=O)C2CCCN2C1=O` (stereo not given) ({Picolinoyl(3-OH)}-T[Abu]P[ξNMePhe(4-NMe2)][ξPip(4-oxo)][Phg]; ester 1-C; configuration not given here) was tested. Which GI50 (SN12C) did it give?
A: Its GI50 is 9.35 µM (inactive).

Q: And the GI50 (MDA-MB-231)?
A: Its GI50 is 7.55 µM (inactive).

Q: What about the GI50 (HOP-62) of the same compound?
A: Its GI50 is 14.6 µM (inactive).

Q: What about the GI50 (SK-MEL-5) of the same compound?
A: Its GI50 is 4.91 µM (inactive).

Q: What about the GI50 (OVCAR-4) of the same compound?
A: Its GI50 is 12.1 µM (inactive).

Q: And the GI50 (OVCAR-5)?
A: Its GI50 is 31.5 µM (inactive).

Q: And the GI50 (HOP-92)?
A: Its GI50 is 3.78 µM (inactive).

Q: What about the GI50 (NCI-H23) of the same compound?
A: The GI50 was 7.05 µM (inactive).

Q: What about the GI50 (MOLT-4) of the same compound?
A: Its GI50 is 3.64 µM (inactive).

Q: And the GI50 (RXF 393)?
A: The GI50 was 11.4 µM (inactive).

Q: What about the GI50 (MDA-N) of the same compound?
A: Its GI50 is 8.07 µM (inactive).

Q: What about the GI50 (UACC-62) of the same compound?
A: Its GI50 is 13 µM (inactive).

Q: And the GI50 (U-251)?
A: Its GI50 is 11.7 µM (inactive).

Q: And the GI50 (HCC 2998)?
A: The GI50 was 11.6 µM (inactive).

Q: What about the GI50 (BT-549) of the same compound?
A: The GI50 was 16.9 µM (inactive).

Q: What about the GI50 (CAKI-1) of the same compound?
A: The GI50 was 28.2 µM (inactive).

Q: And the GI50 (SW-620)?
A: Its GI50 is 7.5 µM (inactive).

Q: What about the GI50 (OVCAR-8) of the same compound?
A: Its GI50 is 25.6 µM (inactive).

Q: And the GI50 (COLO 205)?
A: The GI50 was 6.59 µM (inactive).

Q: What about the GI50 (CCRF-CEM) of the same compound?
A: The GI50 was 1.9 µM (inactive).

Q: What about the GI50 (IGROV-1) of the same compound?
A: Its GI50 is 11.4 µM (inactive).

Q: What about the GI50 (HL-60) of the same compound?
A: The GI50 was 3.71 µM (inactive).

Q: What about the GI50 (NCI-H460) of the same compound?
A: Its GI50 is 3.75 µM (inactive).

Q: And the GI50 (SK-MEL-2)?
A: Its GI50 is 7.21 µM (inactive).

Q: What about the GI50 (SNB-19) of the same compound?
A: Its GI50 is 13.1 µM (inactive).

Q: What about the GI50 (LOX IMVI) of the same compound?
A: Its GI50 is 3.87 µM (inactive).

Q: What about the GI50 (NCI/ADR-RES) of the same compound?
A: The GI50 was 25.3 µM (inactive).

Q: What about the GI50 (MCF7) of the same compound?
A: The GI50 was 7.29 µM (inactive).

Q: What about the GI50 (T47D) of the same compound?
A: The GI50 was 15.4 µM (inactive).

Q: And the GI50 (UACC-257)?
A: The GI50 was 6.08 µM (inactive).

Q: And the GI50 (786-0)?
A: The GI50 was 15.5 µM (inactive).

Q: What about the GI50 (NCI-H226) of the same compound?
A: Its GI50 is 13.6 µM (inactive).

Q: What about the GI50 (K562) of the same compound?
A: Its GI50 is 4.72 µM (inactive).

Q: What about the GI50 (ACHN) of the same compound?
A: Its GI50 is 7.96 µM (inactive).

Q: And the GI50 (MDA-MB-435)?
A: The GI50 was 12 µM (inactive).

Q: And the GI50 (EKVX)?
A: Its GI50 is 13.6 µM (inactive).

Q: And the GI50 (OVCAR-3)?
A: Its GI50 is 8.04 µM (inactive).

Q: And the GI50 (SK-MEL-28)?
A: The GI50 was 13.7 µM (inactive).

Q: What about the GI50 (M14) of the same compound?
A: Its GI50 is 15 µM (inactive).

Q: What about the GI50 (KM12) of the same compound?
A: The GI50 was 10.4 µM (inactive).

Q: What about the GI50 (HT-29) of the same compound?
A: Its GI50 is 6.41 µM (inactive).

Q: What about the GI50 (A498) of the same compound?
A: Its GI50 is 10 µM (inactive).

Q: And the GI50 (Malme-3M)?
A: The GI50 was 12.8 µM (inactive).

Q: What about the GI50 (UO-31) of the same compound?
A: The GI50 was 20.8 µM (inactive).

Q: And the GI50 (SF-268)?
A: The GI50 was 24.4 µM (inactive).

Q: And the GI50 (SK-OV-3)?
A: Its GI50 is 25.5 µM (inactive).

Q: What about the GI50 (RPMI-8226) of the same compound?
A: The GI50 was 4.68 µM (inactive).

Q: What about the GI50 (HCT-15) of the same compound?
A: Its GI50 is 9.51 µM.

Q: What about the GI50 (NCI-H522) of the same compound?
A: Its GI50 is 9.1 µM (inactive).

Q: And the GI50 (SNB-75)?
A: Its GI50 is 24.7 µM (inactive).

Q: What about the GI50 (Hs-578T) of the same compound?
A: Its GI50 is 18.2 µM (inactive).

Q: And the GI50 (SR)?
A: Its GI50 is 3.86 µM (inactive).

Q: What about the GI50 (PC-3) of the same compound?
A: Its GI50 is 8.07 µM (inactive).

Q: What about the GI50 (SF-539) of the same compound?
A: The GI50 was 17.5 µM (inactive).

Q: And the GI50 (SF-295)?
A: The GI50 was 3.66 µM (inactive).

Q: What about the GI50 (TK-10) of the same compound?
A: Its GI50 is 27.2 µM (inactive).

Q: And the GI50 (DU-145)?
A: The GI50 was 7.33 µM (inactive).

Q: And the GI50 (HCT-116)?
A: Its GI50 is 6.4 µM (inactive).

Q: And the GI50 (A549)?
A: The GI50 was 16.7 µM (inactive).
